Experimental data reported in publication PMC10568017, “A quest for the stereo-electronic requirements for selective agonism for the neurotrophin receptors TrkA and TrkB in 17-spirocyclic-dehydroepiandrosterone derivatives” (Frontiers in Molecular Neuroscience, 2023).

Key:
[1] = Metabolic stability in pooled human liver microsomes; assay type: in vitro ADME; details: 1 μM
In short: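 Test compounds at 1 µM incubated in triplicate with pooled human liver microsomes (0.5 mg/mL) and ~1 mM NADPH at 37 °C, stopped after 60 min. Parent loss classed very slow (<5%) to very fast (>80%); metabolism rated high, moderate or low by t1/2 cut-offs of 30 and 60 min.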

CYP2C9 = biological target: T1, CYP2C9 (Homo sapiens, UniProt P11712); assay: Isozyme-specific CYP450 inhibition, CYP2C9; assay type: in vitro ADME; details: 1 μM, 60 min, recombinant human CYP450 (Baculosomes)
T1 construct: purchased Thermo Fisher Scientific; host or cells: Baculosomes
Method: Human cytochrome P450 (CYP450) isoenzymes were expressed in Baculosomes®, purchased from Thermo Fisher Scientific (Waltham, MA, USA). All reagents were handled and prepared according to the manufacturer's protocol. Test compounds were assessed at 1 μM for their effects on CYP1A2, CYP2A6, CYP2C9, CYP2C19, CYP2D6, and CYP3A4. Approximately 1 μM was selected based on our ADMET standard operating procedures and protocols also published previously (Rogdakis et al., [2022]; Yilmaz et al., [2022]). CYP450-enzymatic activity was determined based on the kinetic model for each CYP450 isoform (Cohen et al., [2003]; Veith et al., [2009]). Reactions took place in triplicates at 20°C. For this, NADP^+ (10 mM in 100 mM potassium phosphate, pH 8.0) was converted into NADPH by the regeneration system present (glucose-6-phosphate at 333 mM and glucose-6-phosphate-dehydrogenase at 30 U/mL in 100 mM potassium phosphate, pH 8.0). Following the addition of the fluorescent substrate, signal monitoring over time took place immediately (<2 min) at suitable excitation and emission wavelengths (Agilent BioTek Lionheart FX). CYP450 inhibition (%) was determined based on the reaction rates (fluorescence intensity changes per unit time). In total, n = 60 measurements […] were acquired (t = 60 min).
% Inhibition=(1-X/A)×100%
X is the rate observed in the presence of the test compound.
A is the rate observed in the presence of the negative (solvent, DMSO) control.

T1 sequence (P11712 whole entry): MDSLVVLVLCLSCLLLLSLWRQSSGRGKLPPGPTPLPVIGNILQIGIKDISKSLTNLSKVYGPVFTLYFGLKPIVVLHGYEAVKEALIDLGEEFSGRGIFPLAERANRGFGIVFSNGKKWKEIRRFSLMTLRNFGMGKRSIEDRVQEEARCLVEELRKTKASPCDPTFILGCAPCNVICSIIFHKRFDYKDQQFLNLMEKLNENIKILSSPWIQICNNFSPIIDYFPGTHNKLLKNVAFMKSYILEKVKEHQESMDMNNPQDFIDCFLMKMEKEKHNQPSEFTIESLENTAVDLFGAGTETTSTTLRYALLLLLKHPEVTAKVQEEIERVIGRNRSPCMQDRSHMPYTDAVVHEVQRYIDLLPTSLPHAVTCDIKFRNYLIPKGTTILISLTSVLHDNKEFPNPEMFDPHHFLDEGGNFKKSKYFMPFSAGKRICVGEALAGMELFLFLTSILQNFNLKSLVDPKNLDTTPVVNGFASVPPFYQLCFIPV

Compound: C[C@]12CC[C@H](O)CC1=CC[C@@H]1[C@@H]2CC[C@@]2(C)[C@H]1CC[C@@]21CC=C(Cn2cc(Cc3ccccc3)nn2)CO1 [ENT-A055, (3S,17R)-5′-[(4-benzyl-1H-1,2,3-triazol-1-yl)methyl]-3′,6′-dihydrospiro[5-androstene-17,2′-pyran]-3-ol]
- residual of time zero ([1]; pooled human liver microsomes 0.5 mg/mL, t = 60 min, NADPH): > 95%
- parent structure loss (depletion) class ([1]; pooled human liver microsomes, 60 min): very slow (very slow (<5%))
- inhibition for CYP2C9 (CYP2C9): moderate-to-strong inhibition
